Experimental data as given in patent publication US10428044B2, “3-amino-1,5,6,7-tetrahydro-4H-indol-4-ones” (Bayer Pharma Aktiengesellschaft, priority 2014, dated 2019).

target: (recombinant) catalytic domain of human Bub1 (amino acids 704-1085) (Homo sapiens (Human), UniProt O43683); assay: Bub1 kinase assay (TR-FRET); type: biochemical; conditions: ATP 10 μM final, peptide substrate 1 μM final, 60 min at 22° C., read-out: Biological Assay: Bub1 kinase assay median IC50
In short: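 Compounds were serially diluted 1:3.4 from 2 mM DMSO stocks and incubated with the enzyme reaction for 60 min at 22° C. The reaction was stopped with EDTA, and biotinylated peptide phosphorylation was read by TR-FRET using Eu anti-mouse IgG, anti-phosphoserine antibody and streptavidin-XL665. IC50 was fitted by 4-parameter logistic to inhibition normalized to no-inhibitor and no-enzyme controls.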

Sequence of (recombinant) catalytic domain of human Bub1 (amino acids 704-1085) (O43683 704-1085): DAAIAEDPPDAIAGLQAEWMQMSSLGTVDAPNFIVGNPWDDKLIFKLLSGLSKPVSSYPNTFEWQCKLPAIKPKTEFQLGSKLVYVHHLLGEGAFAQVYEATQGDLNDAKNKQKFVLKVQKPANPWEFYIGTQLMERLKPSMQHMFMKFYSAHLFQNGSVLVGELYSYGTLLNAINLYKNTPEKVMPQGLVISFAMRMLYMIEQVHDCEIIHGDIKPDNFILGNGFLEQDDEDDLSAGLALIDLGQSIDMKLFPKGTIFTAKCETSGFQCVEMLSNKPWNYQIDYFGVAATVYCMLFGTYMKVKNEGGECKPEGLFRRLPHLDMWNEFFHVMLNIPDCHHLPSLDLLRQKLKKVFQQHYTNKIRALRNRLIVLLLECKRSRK

Compared with O=C1CCCc2[nH]c(-c3ccnc(NC(=S)NC4CC4)c3)c(Nc3ccccc3)c21 [Example 395, 1-cyclopropyl-3-{4-[4-oxo-3-(phenylamino)-4,5,6,7-tetrahydro-1H-indol-2-yl]pyridin-2-yl}thiourea], O=C1CCCc2[nH]c(-c3ccnc(NC(=S)NC4CCCC4)c3)c(Nc3ccccc3)c21 [Example 397, 1-cyclopentyl-3-{4-[4-oxo-3-(phenylamino)-4,5,6,7-tetrahydro-1H-indol-2-yl]pyridin-2-yl}thiourea] is 4.9-fold higher in IC50: 213 nM for the first, 1050 nM for the second.

First: CC(C)(C)NC(=S)Nc1cc(-c2[nH]c3c(c2Nc2ccccc2)C(=O)CCC3)ccn1 [Example 396, 1-tert-butyl-3-{4-[4-oxo-3-(phenylamino)-4,5,6,7-tetrahydro-1H-indol-2-yl]pyridin-2-yl}thiourea]
Second: CCCNC(=S)Nc1cc(-c2[nH]c3c(c2Nc2ccccc2)C(=O)CCC3)ccn1 [Example 399, 1-{4-[4-oxo-3-(phenylamino)-4,5,6,7-tetrahydro-1H-indol-2-yl]pyridin-2-yl}-3-propylthiourea]
The IC50 of the first is 8.4-fold higher: 2460 nM for the first, 292 nM for the second.

Going from O=C1CCCc2[nH]c(-c3ccnc(NC(=S)NCC4CC4)c3)c(Nc3ccccc3)c21 [Example 398, 1-(cyclopropylmethyl)-3-{4-[4-oxo-3-(phenylamino)-4,5,6,7-tetrahydro-1H-indol-2-yl]pyridin-2-yl}thiourea] to O=C1CCCc2[nH]c(-c3ccnc(C(F)F)c3)c(Nc3ccccc3)c21 [Example 401, 2-[2-(difluoromethyl)pyridin-4-yl]-3-(phenylamino)-1,5,6,7-tetrahydro-4H-indol-4-one], the IC50 falls from 552 nM to 354 nM (1.6-fold). The second is the more potent here.

Compared with CC1(C)CC(=O)c2c([nH]c(-c3ccnc(C(F)F)c3)c2Nc2ccccc2)C1 [Example 400, 2-[2-(difluoromethyl)pyridin-4-yl]-6,6-dimethyl-3-(phenylamino)-1,5,6,7-tetrahydro-4H-indol-4-one], CC1(C)CC(=O)c2c([nH]c(-c3ccnc(C(F)F)c3)c2Nc2cccc(F)c2)C1 [Example 402, 2-[2-(difluoromethyl)pyridin-4-yl]-3-[(3-fluorophenyl)amino]-6,6-dimethyl-1,5,6,7-tetrahydro-4H-indol-4-one] is 2-fold higher in IC50: 157 nM for the first, 312 nM for the second.

COc1cnccc1-c1[nH]c2c(c1Nc1ccccc1)C(=O)CC(C)(C)C2 [Example 403, 2-(3-methoxypyridin-4-yl)-6,6-dimethyl-3-(phenylamino)-1,5,6,7-tetrahydro-4H-indol-4-one] and CCOc1cnccc1-c1[nH]c2c(c1Nc1ccccc1)C(=O)CC(C)(C)C2 [Example 404, 2-(3-ethoxypyridin-4-yl)-6,6-dimethyl-3-(phenylamino)-1,5,6,7-tetrahydro-4H-indol-4-one] are within 1.5-fold of each other in IC50: 9.3 nM for the first, 11.7 nM for the second.

CCCOc1cnccc1-c1[nH]c2c(c1Nc1ccccc1)C(=O)CC(C)(C)C2 [Example 405, 6,6-dimethyl-3-(phenylamino)-2-(3-propoxypyridin-4-yl)-1,5,6,7-tetrahydro-4H-indol-4-one] and CC1(C)CC(=O)c2c([nH]c(-c3ccncc3OCCO)c2Nc2ccccc2)C1 [Example 409, 2-[3-(2-hydroxyethoxy)pyridin-4-yl]-6,6-dimethyl-3-(phenylamino)-1,5,6,7-tetrahydro-4H-indol-4-one] are within 1.5-fold of each other in IC50: 8.4 nM for the first, 9.63 nM for the second.

Compared with CC(C)Oc1cnccc1-c1[nH]c2c(c1Nc1ccccc1)C(=O)CC(C)(C)C2 [Example 406, 6,6-dimethyl-3-(phenylamino)-2-[3-(propan-2-yloxy)pyridin-4-yl]-1,5,6,7-tetrahydro-4H-indol-4-one], CC1(C)CC(=O)c2c([nH]c(-c3ccncc3OC(C)(C)C)c2Nc2ccccc2)C1 [Example 407, 2-(3-tert-butoxypyridin-4-yl)-6,6-dimethyl-3-(phenylamino)-1,5,6,7-tetrahydro-4H-indol-4-one] is 11-fold higher in IC50: 53.7 nM for the first, 600 nM for the second.

First: CC1(C)CC(=O)c2c([nH]c(-c3ccncc3OCC(F)F)c2Nc2ccccc2)C1 [Example 408, 2-[3-(2,2-difluoroethoxy)pyridin-4-yl]-6,6-dimethyl-3-(phenylamino)-1,5,6,7-tetrahydro-4H-indol-4-one]
Second: CC1(C)CC(=O)c2c([nH]c(-c3ccncc3OCC(F)(F)F)c2Nc2ccccc2)C1 [Example 412, 6,6-dimethyl-3-(phenylamino)-2-[3-(2,2,2-trifluoroethoxy)pyridin-4-yl]-1,5,6,7-tetrahydro-4H-indol-4-one]
The IC50 of the first is 4.4-fold lower: 6.42 nM for the first, 28.4 nM for the second. The first is the more potent here.

Compared with COCCOc1cnccc1-c1[nH]c2c(c1Nc1ccccc1)C(=O)CC(C)(C)C2 [Example 410, 2-[3-(2-methoxyethoxy)pyridin-4-yl]-6,6-dimethyl-3-(phenylamino)-1,5,6,7-tetrahydro-4H-indol-4-one], CC1(C)CC(=O)c2c([nH]c(-c3ccncc3OCC3CC3)c2Nc2ccccc2)C1 [Example 411, 2-[3-(cyclopropylmethoxy)pyridin-4-yl]-6,6-dimethyl-3-(phenylamino)-1,5,6,7-tetrahydro-4H-indol-4-one] is 1.9-fold higher in IC50: 3.55 nM for the first, 6.86 nM for the second.

Going from COc1cnccc1-c1[nH]c2c(c1Nc1ccccc1)C(=O)CCC2 [Example 413, 2-(3-methoxypyridin-4-yl)-3-(phenylamino)-1,5,6,7-tetrahydro-4H-indol-4-one] to CC1(C)CC(=O)c2c([nH]c(-c3ccncc3)c2Nc2cccc(Oc3ccccc3)c2)C1 [Example 421, 6,6-dimethyl-3-[(3-phenoxyphenyl)amino]-2-(pyridin-4-yl)-1,5,6,7-tetrahydro-4H-indol-4-one], the IC50 rises from 43.2 nM to 200 nM (4.6-fold).

First: CC1(C)CC(=O)c2c([nH]c(-c3ccncc3)c2Nc2ccc(-c3ccccc3)cc2)C1 [Example 414, 3-(biphenyl-4-ylamino)-6,6-dimethyl-2-(pyridin-4-yl)-1,5,6,7-tetrahydro-4H-indol-4-one]
Second: CC1(C)CC(=O)c2c([nH]c(-c3ccncc3)c2Nc2cc(-c3ccccc3)ccn2)C1 [Example 422, 6,6-dimethyl-3-[(4-phenylpyridin-2-yl)amino]-2-(pyridin-4-yl)-1,5,6,7-tetrahydro-4H-indol-4-one]
The IC50 of the first is higher: > 20000 nM for the first, 330 nM for the second. The second is the more potent here.

First: CC1(C)CC(=O)c2c([nH]c(-c3ccncc3)c2Nc2cccc(Cc3ccccc3)c2)C1 [Example 415, 3-[(3-benzylphenyl)amino]-6,6-dimethyl-2-(pyridin-4-yl)-1,5,6,7-tetrahydro-4H-indol-4-one]
Second: CC1(C)CC(=O)c2c([nH]c(-c3ccncc3)c2Nc2ccccc2Cc2ccccc2)C1 [Example 416, 3-[(2-benzylphenyl)amino]-6,6-dimethyl-2-(pyridin-4-yl)-1,5,6,7-tetrahydro-4H-indol-4-one]
The IC50 of the first is 2.4-fold lower: 283 nM for the first, 689 nM for the second.

Going from Cn1nccc1-c1cccc(Nc2c(-c3ccncc3)[nH]c3c2C(=O)CC(C)(C)C3)c1 [Example 417, 6,6-dimethyl-3-{[3-(1-methyl-1H-pyrazol-5-yl)phenyl]amino}-2-(pyridin-4-yl)-1,5,6,7-tetrahydro-4H-indol-4-one] to CC1(C)CC(=O)c2c([nH]c(-c3ccncc3)c2Nc2cccc(-c3ccco3)c2)C1 [Example 419, 3-{[3-(furan-2-yl)phenyl]amino}-6,6-dimethyl-2-(pyridin-4-yl)-1,5,6,7-tetrahydro-4H-indol-4-one], the IC50 falls from 273 nM to 11.8 nM (23-fold). The second is the more potent here.

CC1(C)CC(=O)c2c([nH]c(-c3ccncc3)c2Nc2cccc(-c3ccsc3)c2)C1 [Example 418, 6,6-dimethyl-2-(pyridin-4-yl)-3-{[3-(thiophen-3-yl)phenyl]amino}-1,5,6,7-tetrahydro-4H-indol-4-one] and CC1(C)CC(=O)c2c([nH]c(-c3ccncc3)c2Nc2cccc(-c3cccs3)c2)C1 [Example 420, 6,6-dimethyl-2-(pyridin-4-yl)-3-{[3-(thiophen-2-yl)phenyl]amino}-1,5,6,7-tetrahydro-4H-indol-4-one] are within 1.5-fold of each other in IC50: 26.6 nM for the first, 24.9 nM for the second.

Going from CC1(C)CC(=O)c2c([nH]c(-c3ccncc3)c2Nc2cccc(-c3ccccc3)n2)C1 [Example 423, 6,6-dimethyl-3-[(6-phenylpyridin-2-yl)amino]-2-(pyridin-4-yl)-1,5,6,7-tetrahydro-4H-indol-4-one] to CC1(C)CC(=O)c2c([nH]c(-c3ccncc3)c2Nc2ccccc2CO)C1 [Example 426, 3-{[2-(hydroxymethyl)phenyl]amino}-6,6-dimethyl-2-(pyridin-4-yl)-1,5,6,7-tetrahydro-4H-indol-4-one], the IC50 falls from 26.8 nM to 2.58 nM (10-fold). The second is the more potent here.

Compared with CC1(C)CC(=O)c2c([nH]c(-c3ccncc3)c2Nc2ccccc2CCO)C1 [Example 427, 3-{[2-(2-hydroxyethyl)phenyl]amino}-6,6-dimethyl-2-(pyridin-4-yl)-1,5,6,7-tetrahydro-4H-indol-4-one], CC1(C)CC(=O)c2c([nH]c(-c3ccncc3)c2Nc2ccccc2C(N)=O)C1 [Example 429, 2-{[6,6-dimethyl-4-oxo-2-(pyridin-4-yl)-4,5,6,7-tetrahydro-1H-indol-3-yl]amino}benzamide] is 8.4-fold higher in IC50: 8.4 nM for the first, 70.9 nM for the second. The first is the more potent here.

First: C#Cc1cccc(Nc2c(-c3ccncc3)[nH]c3c2C(=O)CC(C)(C)C3)c1 [Example 428, 3-[(3-ethynylphenyl)amino]-6,6-dimethyl-2-(pyridin-4-yl)-1,5,6,7-tetrahydro-4H-indol-4-one]
Second: CC1(C)CC(=O)c2c([nH]c(-c3ccncc3)c2Nc2ccc(C#N)cc2)C1 [Example 433, 4-{[6,6-dimethyl-4-oxo-2-(pyridin-4-yl)-4,5,6,7-tetrahydro-1H-indol-3-yl]amino}benzonitrile]
The IC50 of the first is 5.8-fold lower: 509 nM for the first, 2930 nM for the second. The first is the more potent here.

Compared with CC1(C)CC(=O)c2c([nH]c(-c3ccncc3)c2Nc2ccc(S(N)(=O)=O)cc2)C1 [Example 432, 4-{[6,6-dimethyl-4-oxo-2-(pyridin-4-yl)-4,5,6,7-tetrahydro-1H-indol-3-yl]amino}benzenesulfonamide], CN(C)c1ccc(Nc2c(-c3ccncc3)[nH]c3c2C(=O)CC(C)(C)C3)cc1 [Example 435, 3-{[4-(dimethylamino)phenyl]amino}-6,6-dimethyl-2-(pyridin-4-yl)-1,5,6,7-tetrahydro-4H-indol-4-one] is 1.7-fold lower in IC50: 2360 nM for the first, 1380 nM for the second. The second is the more potent here.
